Data reported in patent US20100160454A1, “ANTIMICROBIAL AGENTS, COMPOSITIONS AND PRODUCTS CONTAINING THE SAME, AND METHODS OF USING THE COMPOSITIONS AND PRODUCTS” (Eastman Chemical Company, priority 2008, published 2010).

Legend:
Assay in all cases: Microbiological challenge testing in BPW broth, graded subculture counts
Assay type in all cases: cell-based
[1] = tested on: Bacillus subtilis Wild type
In short: (§1)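 Challenge substrates of BPW plus 1% dextrose containing the test material (w/v) or broth alone were inoculated to 10^5–10^6 CFU/mL. Bacteria had been precultured in dextrose TSB at 35 °C for at least 96 h. CFU/mL came from plate count × dilution factor on PCA after ≥48 h at 35 °C.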

[2] = tested on: Proteus vulgaris Wild type
In short: as §1

[3] = tested on: Aeromonas sp. Wild type
In short: as §1

[4] = tested on: Staphylococcus aureus ATCC 25923; settings: S. aureus
In short: as §1

[5] = tested on: Streptococcus mutans ATCC 35668
In short: as §1

[6] = tested on: Escherichia coli ATCC 25922; settings: E. Coli
In short: as §1

[7] = tested on: Burkholderia cepacia Wild type; settings: B. cepacia
In short: as §1

SMILES: O=C([O-])CN(CCN(CC(=O)[O-])CC(=O)O)CC(=O)O.[Na+].[Na+] [EDTA, Na2EDTA]
- B. subtillis growth grade, 3 day ([1]; 0.5% weight/volume): 4 (1000 to 10,000 colonies countable (thus 10,000 CFU/mL to 100,000 CFU/mL))
- B. subtillis growth grade, 14 day ([1]; 0.5% weight/volume): 4 (1000 to 10,000 colonies countable (thus 10,000 CFU/mL to 100,000 CFU/mL))
- B. subtillis growth grade, 30 day ([1]; 0.5% weight/volume): 4 (1000 to 10,000 colonies countable (thus 10,000 CFU/mL to 100,000 CFU/mL))
- B. subtillis growth grade, 3 day ([1]; 1.25% weight/volume): 2 (52 to 100 colonies counted (thus 520 to 1000 CFU/mL))
- B. subtillis growth grade, 14 day ([1]; 1.25% weight/volume): 2 (52 to 100 colonies counted (thus 520 to 1000 CFU/mL))
- B. subtillis growth grade, 30 day ([1]; 1.25% weight/volume): 2 (52 to 100 colonies counted (thus 520 to 1000 CFU/mL))
- B. subtillis growth grade, 3 day ([1]; 2.5% weight/volume): 0
- B. subtillis growth grade, 14 day ([1]; 2.5% weight/volume): 0
- B. subtillis growth grade, 30 day ([1]; 2.5% weight/volume): 0
- B. subtillis growth grade, 3 day ([1]; 5.0% weight/volume): 0
- B. subtillis growth grade, 14 day ([1]; 5.0% weight/volume): 0
- B. subtillis growth grade, 30 day ([1]; 5.0% weight/volume): 0
- P. vulgaris growth grade, 3 day ([2]; 0.5% weight/volume): 5 (More than 10,000 colonies estimated (thus more than 100,000 CFU/mL))
- P. vulgaris growth grade, 13 day ([2]; 0.5% weight/volume): 4 (1000 to 10,000 colonies countable (thus 10,000 CFU/mL to 100,000 CFU/mL))
- P. vulgaris growth grade, 30 day ([2]; 0.5% weight/volume): 4 (1000 to 10,000 colonies countable (thus 10,000 CFU/mL to 100,000 CFU/mL))
- P. vulgaris growth grade, 3 day ([2]; 1.25% weight/volume): 3 (100 to 1000 colonies (thus 1000 to 10,000 CFU/mL))
- P. vulgaris growth grade, 13 day ([2]; 1.25% weight/volume): 1 (0 to 51 colonies counted (thus 10 to 510 CFU/mL based on 0.1-mL sample))
- P. vulgaris growth grade, 30 day ([2]; 1.25% weight/volume): 3 (100 to 1000 colonies (thus 1000 to 10,000 CFU/mL))
- P. vulgaris growth grade, 3 day ([2]; 2.5% weight/volume): 4 (1000 to 10,000 colonies countable (thus 10,000 CFU/mL to 100,000 CFU/mL))
- P. vulgaris growth grade, 13 day ([2]; 2.5% weight/volume): 4 (1000 to 10,000 colonies countable (thus 10,000 CFU/mL to 100,000 CFU/mL))
- P. vulgaris growth grade, 30 day ([2]; 2.5% weight/volume): 4 (1000 to 10,000 colonies countable (thus 10,000 CFU/mL to 100,000 CFU/mL))
- P. vulgaris growth grade, 3 day ([2]; 5.0% weight/volume): 4 (1000 to 10,000 colonies countable (thus 10,000 CFU/mL to 100,000 CFU/mL))
- P. vulgaris growth grade, 13 day ([2]; 5.0% weight/volume): 4 (1000 to 10,000 colonies countable (thus 10,000 CFU/mL to 100,000 CFU/mL))
- P. vulgaris growth grade, 30 day ([2]; 5.0% weight/volume): 4 (1000 to 10,000 colonies countable (thus 10,000 CFU/mL to 100,000 CFU/mL))
- Aeromonas sp growth grade, 3 day ([3]; 0.5% weight/volume): 5 (More than 10,000 colonies estimated (thus more than 100,000 CFU/mL))
- Aeromonas sp growth grade, 14 day ([3]; 0.5% weight/volume): 4 (1000 to 10,000 colonies countable (thus 10,000 CFU/mL to 100,000 CFU/mL))
- Aeromonas sp growth grade, 30 day ([3]; 0.5% weight/volume): 4 (1000 to 10,000 colonies countable (thus 10,000 CFU/mL to 100,000 CFU/mL))
- Aeromonas sp growth grade, 3 day ([3]; 1.25% weight/volume): 4 (1000 to 10,000 colonies countable (thus 10,000 CFU/mL to 100,000 CFU/mL))
- Aeromonas sp growth grade, 14 day ([3]; 1.25% weight/volume): 4 (1000 to 10,000 colonies countable (thus 10,000 CFU/mL to 100,000 CFU/mL))
- Aeromonas sp growth grade, 30 day ([3]; 1.25% weight/volume): 4 (1000 to 10,000 colonies countable (thus 10,000 CFU/mL to 100,000 CFU/mL))
- Aeromonas sp growth grade, 3 day ([3]; 2.5% weight/volume): 3 (100 to 1000 colonies (thus 1000 to 10,000 CFU/mL))
- Aeromonas sp growth grade, 14 day ([3]; 2.5% weight/volume): 2 (52 to 100 colonies counted (thus 520 to 1000 CFU/mL))
- Aeromonas sp growth grade, 30 day ([3]; 2.5% weight/volume): 1 (0 to 51 colonies counted (thus 10 to 510 CFU/mL based on 0.1-mL sample))
- Aeromonas sp growth grade, 3 day ([3]; 5.0% weight/volume): 1 (0 to 51 colonies counted (thus 10 to 510 CFU/mL based on 0.1-mL sample))
- Aeromonas sp growth grade, 14 day ([3]; 5.0% weight/volume): 0
- Aeromonas sp growth grade, 30 day ([3]; 5.0% weight/volume): 0
- Grade ([4]; 0.5% (wt/vol), 3 day): 4 (1000 to 10,000 colonies countable (thus 10,000 CFU/mL to 100,000 CFU/mL))
- Grade ([4]; 0.5% (wt/vol), 14 day): 4 (1000 to 10,000 colonies countable (thus 10,000 CFU/mL to 100,000 CFU/mL))
- Grade ([4]; 0.5% (wt/vol), 30 day): 4 (1000 to 10,000 colonies countable (thus 10,000 CFU/mL to 100,000 CFU/mL))
- Grade ([4]; 1.25% (wt/vol), 3 day): 2.7
- Grade ([4]; 1.25% (wt/vol), 14 day): 2 (52 to 100 colonies counted (thus 520 to 1000 CFU/mL))
- Grade ([4]; 1.25% (wt/vol), 30 day): 2 (52 to 100 colonies counted (thus 520 to 1000 CFU/mL))
- Grade ([4]; 2.5% (wt/vol), 3 day): 1 (0 to 51 colonies counted (thus 10 to 510 CFU/mL based on 0.1-mL sample))
- Grade ([4]; 2.5% (wt/vol), 14 day): 0.3
- Grade ([4]; 2.5% (wt/vol), 30 day): 0.3
- Grade ([4]; 5.0% (wt/vol), 3 day): 0
- Grade ([4]; 5.0% (wt/vol), 14 day): 0
- Grade ([4]; 5.0% (wt/vol), 30 day): 0
- S. mutans growth grade, 3 day ([5]; 0.5% weight/volume): 4 (1000 to 10,000 colonies countable (thus 10,000 CFU/mL to 100,000 CFU/mL))
- S. mutans growth grade, 13 day ([5]; 0.5% weight/volume): 4 (1000 to 10,000 colonies countable (thus 10,000 CFU/mL to 100,000 CFU/mL))
- S. mutans growth grade, 30 day ([5]; 0.5% weight/volume): 4 (1000 to 10,000 colonies countable (thus 10,000 CFU/mL to 100,000 CFU/mL))
- S. mutans growth grade, 3 day ([5]; 1.25% weight/volume): 2 (52 to 100 colonies counted (thus 520 to 1000 CFU/mL))
- S. mutans growth grade, 13 day ([5]; 1.25% weight/volume): 2 (52 to 100 colonies counted (thus 520 to 1000 CFU/mL))
- S. mutans growth grade, 30 day ([5]; 1.25% weight/volume): 2 (52 to 100 colonies counted (thus 520 to 1000 CFU/mL))
- S. mutans growth grade, 3 day ([5]; 2.5% weight/volume): 0
- S. mutans growth grade, 13 day ([5]; 2.5% weight/volume): 0
- S. mutans growth grade, 30 day ([5]; 2.5% weight/volume): 0
- S. mutans growth grade, 3 day ([5]; 5.0% weight/volume): 0
- S. mutans growth grade, 13 day ([5]; 5.0% weight/volume): 0
- S. mutans growth grade, 30 day ([5]; 5.0% weight/volume): 0
- Grade ([6]; 0.5% (wt/vol), 3 day): 5 (More than 10,000 colonies estimated (thus more than 100,000 CFU/mL))
- Grade ([6]; 0.5% (wt/vol), 14 day): 5 (More than 10,000 colonies estimated (thus more than 100,000 CFU/mL))
- Grade ([6]; 0.5% (wt/vol), 30 day): 5 (More than 10,000 colonies estimated (thus more than 100,000 CFU/mL))
- Grade ([6]; 1.25% (wt/vol), 3 day): 4 (1000 to 10,000 colonies countable (thus 10,000 CFU/mL to 100,000 CFU/mL))
- Grade ([6]; 1.25% (wt/vol), 14 day): 4 (1000 to 10,000 colonies countable (thus 10,000 CFU/mL to 100,000 CFU/mL))
- Grade ([6]; 1.25% (wt/vol), 30 day): 4 (1000 to 10,000 colonies countable (thus 10,000 CFU/mL to 100,000 CFU/mL))
- Grade ([6]; 2.5% (wt/vol), 3 day): 0
- Grade ([6]; 2.5% (wt/vol), 14 day): 0
- Grade ([6]; 2.5% (wt/vol), 30 day): 0
- Grade ([6]; 5.0% (wt/vol), 3 day): 0
- Grade ([6]; 5.0% (wt/vol), 14 day): 0
- Grade ([6]; 5.0% (wt/vol), 30 day): 0
- Grade ([7]; 0.5% (wt/vol), 3 day): 4 (1000 to 10,000 colonies countable (thus 10,000 CFU/mL to 100,000 CFU/mL))
- Grade ([7]; 0.5% (wt/vol), 14 day): 4 (1000 to 10,000 colonies countable (thus 10,000 CFU/mL to 100,000 CFU/mL))
- Grade ([7]; 0.5% (wt/vol), 30 day): 4 (1000 to 10,000 colonies countable (thus 10,000 CFU/mL to 100,000 CFU/mL))
- Grade ([7]; 1.25% (wt/vol), 3 day): 3 (100 to 1000 colonies (thus 1000 to 10,000 CFU/mL))
- Grade ([7]; 1.25% (wt/vol), 14 day): 2 (52 to 100 colonies counted (thus 520 to 1000 CFU/mL))
- Grade ([7]; 1.25% (wt/vol), 30 day): 2 (52 to 100 colonies counted (thus 520 to 1000 CFU/mL))
- Grade ([7]; 2.5% (wt/vol), 3 day): 1 (0 to 51 colonies counted (thus 10 to 510 CFU/mL based on 0.1-mL sample))
- Grade ([7]; 2.5% (wt/vol), 14 day): 0
- Grade ([7]; 2.5% (wt/vol), 30 day): 0
- Grade ([7]; 5.0% (wt/vol), 3 day): 0
- Grade ([7]; 5.0% (wt/vol), 14 day): 0
- Grade ([7]; 5.0% (wt/vol), 30 day): 0
